{"source": "patent US20060009520A1", "about": "“Retinoid-based methods for altering macrophage cholesterol” (priority 2004, published 2006)", "key": {"RARα protein": {"tested_on": "RARα protein", "assay": "Western blot of nuclear RARα in RARγ-deficient macrophages", "type": "cell-based, mouse", "details": "TTNPB treatment", "procedure": "Nuclear protein extracts from tissues and macrophages were isolated according to the following method. Tissue samples and cells were first homogenized on ice and then lysed in lysis buffer (10 mM Tris [pH 7.5], 3 mM MgCl2, 10 mM NaCl, 0.5% NP-40) containing protease inhibitor cocktail. The nucleus was then pelleted by centrifugation for 10 min at 6,000× g, immediately resuspended in a nucleus suspension buffer (250 mM Tris [pH 8.0], 60 mM KCl, I mM dithiothrietol), and then rotated for 1 h. After centrifugation for 5 min at 6000× g, the solubilized nuclear proteins were separated by electrophoresis with a 4 to 15% gradient gel (Bio-Rad), transferred to nitrocellulose membrane (Trans-Blot transfer medium; Bio-Rad), and probed with anti-RARγ and anti-RARα antibodies (Santa Cruz Biotechnology, Santa Cruz, Calif.) and their respective horseradish peroxidase-conjugated secondary antibodies according to the manufacturer's recommendations. The intensities of the bands were quantified by using ImageQuant and normalized to (β-actin."}, "[1]": {"tested_on": "ABCA1, ABCG1, SREBP-1c, apoE, LXRα, Cyp26 mRNA", "assay": "Quantitative real-time PCR of LXR target genes and Cyp26 in human monocyte-derived macrophages", "type": "cell-based", "details": "human macrophages", "procedure": "(§1) For quantification of mouse Cyp26 mRNA levels, each amplification mixture (25 μ) contained 62.5 ng of cDNA, 100 nM concentrations of reverse and forward primers, and 2.5 μl of 10× SYBR Green PCR master mix (Perkin-Elmer Life Sciences, Boston, Mass.). Quantitative expression values were extrapolated from standard curves for Cyp26 expression with 10-fold dilutions of cDNA (in triplicate). Each sample was normalized to β-actin that was deduced from TaqMan assays, triplicate results were averaged, and relative Cyp26 mRNA levels were determined. The primers mCyp26 F (5′-[…]-3′) and mCyp26 R (5′-[…]-3′) were used. RNA measurements from human monocyte-derived macrophages were performed as described previously (10, 44)."}, "ABCA1 protein [2]": {"tested_on": "ABCA1 protein", "assay": "Western blot of ABCA1 protein in mouse peritoneal macrophages", "type": "cell-based", "details": "24 h", "procedure": "(§2) Protein extracts from macrophages were prepared by lysing the cells in modified radioimmunoprecipitation assay buffer (50 mM Tris, 150 mM NaCl, 1 mM EDTA. 1% Triton X-100) containing a protease inhibitor cocktail (Complete EDTA Free; Roche). Protein content in the extracts was determined by using the DC protein assay (Bio-Rad, Hercules, Calif.). Equal amounts of protein (40 to 50 μg) were separated by electrophoresis with 4 to 15% acrylamide gradient gels (Bio-Rad) and then transferred to nitrocellulose membrane (Trans-Blot Transfer Medium; Bio-Rad). Membranes were probed with anti-ABCA1 antibody (Novus Biologicals, Littleton, Colo.) and anti-β-actin antibody (Sigma) according to the manufacturer's recommendations. Immunoblots were developed by using a chemiluminescent detection system (Super Signal West Pico chemiluminescent substrate; Pierce, Rockford, Ill.)."}, "[3]": {"tested_on": "ABCA1, ABCG1, SREBP-1c, apoE, LXRα, Cyp26 mRNA", "assay": "Quantitative real-time PCR of LXR target genes and Cyp26 in mouse peritoneal macrophages", "type": "cell-based", "procedure": "Total RNA was isolated from mouse peritoneal macrophages or ˜50 mg of mouse liver tissue by using the RNeasy Mini kit (Qiagen, Valencia, Calif.) or RNA-Bee reagent (Tel-Test, Inc., Friendswood, Tex.), respectively, according to the manufacturer's protocol. Real-time quantitative PCR assays were performed by using the Mx4000 Quantitative PCR System (Stratagene, La Jolla, Calif.). Briefly, 5 μg of total RNA was treated with RNase-free DNase I (Ambion, Austin, Tex.), and first-strand cDNA was synthesized with oligo(dT)12-18 by using a Superscript II RNase H^− reverse transcriptase reagent kit (Invitrogen) according to the manufacturer's protocol. For quantification of mouse ABCA1, ABCG1, SREBP-1c, LXRα, ApoE, and fatty acid synthase (FAS) mRNA levels, each amplification mixture contained 62.5 ng of cDNA, appropriate concentrations of forward and reverse primers and of dual-labeled fluorogenic probe (Biosearch Technologies, Novato, Calif.), and 12.5 μl of TaqMan Universal PCR master mix (Applied Biosystems, Foster City, Calif.). PCR thermocycling parameters were 50° C. for 2 min, 95° C. for 10 min, and 45 cycles of 95° C. for 15 s and 60° C. for 1 min. All samples were analyzed for β-actin expression in the same run. Quantitative expression values were extrapolated from standard curves for the gene of interest with 10-fold dilutions of cDNA (in triplicate). Each sample was normalized to β-actin, triplicates were averaged, and relative mRNA levels were determined. The following mouse primers and probes were used: mouse ABCA1 (mABCA1) forward (F) (5′-[…]-3′), mABCA1 reverse (R) (5′-[…]-3′), and mABCA1 TaqMan probe (5′-FAM-[…]-BHQ-3′); mABCG1 F (5′-[…]-3′), mABCG1 R (5′-[…]-3′), and mABCG1 TaqMan probe (5′-FAM-[…]-BHQ-3′); mSREBP-1c F (5′-[…]-3′), mSREBP-1c R (5′-[…]-3′), and mSREBP-1c TaqMan probe (5′-FAM-[…]-BHQ-3′); mApoE F (5′-[…]-3′), mApoE R (5′-[…]-3′), and mApoE TaqMan probe (5′-FAM-[…]-BHQ-3′); mLXRα F (5′-[…]-3′), mLXRα R (5′-[…]-3′), and mLXRα TaqMan probe (5′-FAM-[…]-BHQ-3′); mFAS F (5′-[…]-3′), mFAS R (5′-[…]-3′), and mFAS TaqMan probe (5′-FAM-[…]-BHQ-3′); and mβ-actin F (5′-[…]-3′), mβ-actin R (5′-[…]-3′), and mβ-actin TaqMan probe (5′-JOE-[…]-BHQ-3′).\nas §1"}, "ABCA1 protein [4]": {"tested_on": "ABCA1 protein", "assay": "Western blot of ABCA1 protein in RARγ−/− mouse peritoneal macrophages", "type": "cell-based", "details": "5 μM, 24 h", "procedure": "as §2"}, "[5]": {"assay": "Plasma and hepatic lipid analysis", "type": "in vivo, mouse", "details": "mice; for Hepatic lipid Cholesterol / Hepatic lipid Triglycerides / Plasma lipid Cholesterol / Plasma lipid Triglycerides: 24 h", "procedure": "Mice were fasted for 3 h before blood collection. Plasma was separated by centrifugation and kept at −80° C. until lipid analysis. Liver tissue samples (50 to 75 mg) were homogenized in PBS. Lipids were then extracted with chloroform-methanol (2/1 [vol/vol]) and redissolved in isopropanol. Triglyceride and cholesterol were measured in plasma and in the liver lipid extracts by using commercial kits (Wako Chemicals, Neusse Germany)."}, "[6]": {"details": "mouse peritoneal macrophages, TTNPB 1 μM, 24 h"}}, "data": [{"smiles": "C/C(=C\\c1ccc(C(=O)O)cc1)c1ccc2c(c1)C(C)(C)CCC2(C)C", "note": "[TTNPB, 4-[E-2-5,6.7.8-tetrahydro-5,5,8,8-tetramethyl-2-naphthalenyl-l-propenyl]benzoic acid]", "values": [{"measurement": "decrease of nuclear RARα", "setting": "RARα protein", "result": "~2", "unit": "fold"}, {"measurement": "Cyp26 mRNA increase", "setting": "[1]", "result": "~6", "unit": "fold"}, {"measurement": "induction of ABCA1 or other LXR target genes, compared with ATRA", "setting": "[1]", "result": "much less effective than ATRA"}, {"measurement": "ABCA1 protein levels", "setting": "ABCA1 protein [2]", "result": "accumulation of ABCA1 protein"}, {"measurement": "ABCA1 mRNA", "setting": "[3]; [6]", "result": "induction of macrophage ABCA1 mRNA"}, {"measurement": "SREBP-1c mRNA", "setting": "[3]; [6]", "result": "no effect"}, {"measurement": "Cyp26 mRNA increase", "setting": "[3]; murine macrophages", "result": 30, "unit": "fold"}, {"measurement": "ABCA1 protein induction", "setting": "ABCA1 protein [4]", "result": "still induced"}, {"measurement": "Hepatic lipid Cholesterol", "setting": "[5]; 1 mg/kg intraperitoneally", "result": "1.43 ± 0.07 μg/mg of tissue"}, {"measurement": "Hepatic lipid Triglycerides", "setting": "[5]; 1 mg/kg intraperitoneally", "result": "11.57 ± 4.05 μg/mg of tissue"}, {"measurement": "Plasma lipid Cholesterol", "setting": "[5]; 1 mg/kg intraperitoneally", "result": "64.1 ± 8.0", "unit": "mg/dL"}, {"measurement": "Plasma lipid Triglycerides", "setting": "[5]; 1 mg/kg intraperitoneally", "result": "35.1 ± 4.0", "unit": "mg/dL"}, {"measurement": "Hepatic lipid Cholesterol", "setting": "[5]; 10 mg/kg intraperitoneally", "result": "1.31 ± 0.20 μg/mg of tissue"}, {"measurement": "Hepatic lipid Triglycerides", "setting": "[5]; 10 mg/kg intraperitoneally", "result": "9.25 ± 1.98 μg/mg of tissue"}, {"measurement": "Plasma lipid Cholesterol", "setting": "[5]; 10 mg/kg intraperitoneally", "result": "58.0 ± 4.9", "unit": "mg/dL"}, {"measurement": "Plasma lipid Triglycerides", "setting": "[5]; 10 mg/kg intraperitoneally", "result": "33.1 ± 3.1", "unit": "mg/dL"}, {"measurement": "effect on hepatic triglyceride content", "setting": "[5]; intraperitoneal", "result": "did not result in an increase"}, {"measurement": "effect on triglyceride levels in plasma", "setting": "[5]; intraperitoneal, higher doses", "result": "significant reduction"}]}]}
